Source: patent publication US10770169B2, “Method of providing a treatment to a subject based on a dynamic pathway map” (THE REGENTS OF THE UNIVERSITY OF CALIFORNIA, priority 2010, dated 2020)
Read-outs that look alike come from different tables or passages of the source.

Columns and labels:
[1] = tested on: panel of 55 breast cancer cell lines; test: Cell growth inhibition assay (Cell Titer Glo, 72 h, 9 doses; GI50, TGI, LC50); format: cell-based, human; details: Homo sapiens, read-out: GI50 (converted)
[2] = tested on: luminal, basal, claudin-low and ERBB2AMP breast cancer cell lines; test: Associations of clinically relevant subtypes and response (non-parametric ANOVA or t-test on GI50 ranks); format: cell-based, human; details: Table 6; most sensitive subtype, FDR p<0.20
In short: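 Significance was set at FDR p<0.20 after combining p-values across three test sets. Subtype–response associations came from rank-based non-parametric ANOVA or t-tests on GI50. For three-class comparisons, post-hoc tests of each group against the rest identified the most sensitive group, with FDR correction.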

[3] = tested on: breast cancer cell lines with aberrant vs normal copy number; test: Association of recurrent copy number changes and response (t-test on GI50); format: cell-based, human; details: FDR p<0.2
In short: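 A t-test compared GI50 between cell lines with high amplification at 8q24 (MYC), 11q13 (CCND1) or 20q13 (STK15/AURKA) and lines with low or no amplification, grouped together. Lines whose GI50 equalled the maximum concentration tested were excluded. Compounds with any group under five samples were also excluded.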

CDK4 = CDK4 (Homo sapiens, UniProt P11802); details: cited from earlier work
Chain of CDK4 (P11802 whole entry, species assumed): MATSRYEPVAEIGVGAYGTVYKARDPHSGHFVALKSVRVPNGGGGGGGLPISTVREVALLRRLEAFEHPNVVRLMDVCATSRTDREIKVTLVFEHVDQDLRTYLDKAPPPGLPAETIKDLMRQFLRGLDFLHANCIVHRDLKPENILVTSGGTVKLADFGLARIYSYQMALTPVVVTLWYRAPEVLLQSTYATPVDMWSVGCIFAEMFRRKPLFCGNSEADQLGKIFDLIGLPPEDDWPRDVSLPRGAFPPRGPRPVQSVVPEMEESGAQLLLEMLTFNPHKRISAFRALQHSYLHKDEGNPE
Chain of CDK4 (P24385 whole entry partner, species assumed): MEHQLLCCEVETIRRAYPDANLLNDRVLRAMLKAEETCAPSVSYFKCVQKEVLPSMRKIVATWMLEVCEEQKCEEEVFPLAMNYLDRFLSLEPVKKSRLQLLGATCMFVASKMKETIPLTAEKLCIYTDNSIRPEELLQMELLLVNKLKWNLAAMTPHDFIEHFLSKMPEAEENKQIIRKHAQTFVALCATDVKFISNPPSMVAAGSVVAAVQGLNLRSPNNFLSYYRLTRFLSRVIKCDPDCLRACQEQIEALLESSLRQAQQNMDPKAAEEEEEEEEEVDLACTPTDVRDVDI

SMILES: O=C1c2ccccc2-[n+]2ccc3c([nH]c4ccccc43)c21 [Fascaplysin]
- GI50 ([1]; 600MPE cell line, censored GI50 values): 288 nM
- GI50 ([1]; AU565, AU565 cell line, censored GI50 values): 120 nM
- GI50 ([1]; AU565, cell line AU565): 120 nM
- GI50 ([1]; BT-20, BT20 cell line, censored GI50 values): 309 nM
- GI50 ([1]; BT-20, cell line BT20): 309 nM
- GI50 ([1]; BT-474, BT474 cell line, censored GI50 values): 191 nM
- GI50 ([1]; BT-474, cell line BT474): 191 nM
- GI50 ([1]; BT-483, BT483 cell line, censored GI50 values): 66.1 nM
- GI50 ([1]; BT-483, cell line BT483): 66.1 nM
- GI50 ([1]; BT-549, BT549 cell line, censored GI50 values): 513 nM
- GI50 ([1]; BT-549, cell line BT549): 513 nM
- GI50 ([1]; CAMA-1, CAMA1 cell line, censored GI50 values): 245 nM
- GI50 ([1]; CAMA-1, cell line CAMA1): 245 nM
- GI50 ([1]; HCC38, HCC38 cell line, censored GI50 values): 275 nM
- GI50 ([1]; HCC38, cell line HCC38): 275 nM
- GI50 ([1]; HCC70, HCC70 cell line, censored GI50 values): 126 nM
- GI50 ([1]; HCC70, cell line HCC70): 126 nM
- GI50 ([1]; HCC202, HCC202 cell line, censored GI50 values): 42.7 nM
- GI50 ([1]; HCC202, cell line HCC202): 42.7 nM
- GI50 ([1]; HCC1143, HCC1143 cell line, censored GI50 values): 275 nM
- GI50 ([1]; HCC1143, cell line HCC1143): 275 nM
- GI50 ([1]; HCC1187, HCC1187 cell line, censored GI50 values): 15.5 nM
- GI50 ([1]; HCC1187, cell line HCC1187): 15.5 nM
- GI50 ([1]; HCC1395, HCC1395 cell line, censored GI50 values): 324 nM
- GI50 ([1]; HCC1395, cell line HCC1395): 324 nM
- GI50 ([1]; HCC1419, HCC1419 cell line, censored GI50 values): 263 nM
- GI50 ([1]; HCC1419, cell line HCC1419): 263 nM
- GI50 ([1]; HCC1428, HCC1428 cell line, censored GI50 values): 37.2 nM
- GI50 ([1]; HCC1428, cell line HCC1428): 37.2 nM
- GI50 ([1]; HCC1500, HCC1500 cell line, censored GI50 values): 224 nM
- GI50 ([1]; HCC1500, cell line HCC1500): 224 nM
- GI50 ([1]; HCC1806, HCC1806 cell line, censored GI50 values): 257 nM
- GI50 ([1]; HCC1806, cell line HCC1806): 257 nM
- GI50 ([1]; HCC1937, HCC1937 cell line, censored GI50 values): 389 nM
- GI50 ([1]; HCC1937, cell line HCC1937): 389 nM
- GI50 ([1]; HCC1954, HCC1954 cell line, censored GI50 values): 269 nM
- GI50 ([1]; HCC1954, cell line HCC1954): 269 nM
- GI50 ([1]; HCC2185 cell line, censored GI50 values): 126 nM
- GI50 ([1]; HCC3153 cell line, censored GI50 values): 347 nM
- GI50 ([1]; LY2 cell line, censored GI50 values): 7.94 nM
- GI50 ([1]; MCF7, MCF7 cell line, censored GI50 values): 191 nM
- GI50 ([1]; MCF7, cell line MCF7): 191 nM
- GI50 ([1]; MDA-MB-134-VI, MDAMB134VI cell line, censored GI50 values): 224 nM
- GI50 ([1]; MDA-MB-157, MDAMB157 cell line, censored GI50 values): 170 nM
- GI50 ([1]; MDA-MB-157, cell line MDAMB157): 170 nM
- GI50 ([1]; MDA-MB-175-VII, MDAMB175VII cell line, censored GI50 values): 191 nM
- GI50 ([1]; MDA-MB-231, MDAMB231 cell line, censored GI50 values): 251 nM
- GI50 ([1]; MDA-MB-231, cell line MDAMB231): 251 nM
- GI50 ([1]; MDA-MB-361, MDAMB361 cell line, censored GI50 values): 81.3 nM
- GI50 ([1]; MDA-MB-361, cell line MDAMB361): 81.3 nM
- GI50 ([1]; MDA-MB-415, MDAMB415 cell line, censored GI50 values): 60.3 nM
- GI50 ([1]; MDA-MB-415, cell line MDAMB415): 60.3 nM
- GI50 ([1]; MDA-MB-436, MDAMB436 cell line, censored GI50 values): 417 nM
- GI50 ([1]; MDA-MB-436, cell line MDAMB436): 417 nM
- GI50 ([1]; MDA-MB-453, MDAMB453 cell line, censored GI50 values): 87.1 nM
- GI50 ([1]; MDA-MB-453, cell line MDAMB453): 87.1 nM
- GI50 ([1]; MDA-MB-468, MDAMB468 cell line, censored GI50 values): 77.6 nM
- GI50 ([1]; MDA-MB-468, cell line MDAMB468): 77.6 nM
- GI50 ([1]; SK-BR-3, SKBR3 cell line, censored GI50 values): 224 nM
- GI50 ([1]; SK-BR-3, cell line SKBR3): 224 nM
- GI50 ([1]; SUM52PE, SUM52PE cell line, censored GI50 values): 182 nM
- GI50 ([1]; SUM52PE, cell line SUM52PE): 182 nM
- GI50 ([1]; SUM149PT, SUM149PT cell line, censored GI50 values): 398 nM
- GI50 ([1]; SUM149PT, cell line SUM149PT): 398 nM
- GI50 ([1]; SUM185PE, SUM185PE cell line, censored GI50 values): 55 nM
- GI50 ([1]; SUM185PE, cell line SUM185PE): 55 nM
- GI50 ([1]; SUM225CWN, SUM225CWN cell line, censored GI50 values): 67.6 nM
- GI50 ([1]; SUM225CWN, cell line SUM225CWN): 67.6 nM
- GI50 ([1]; SUM1315MO2, SUM1315MO2 cell line, censored GI50 values): 417 nM
- GI50 ([1]; SUM-159-PT, SUM159PT cell line, censored GI50 values): 427 nM
- GI50 ([1]; SUM-159-PT, cell line SUM159PT): 427 nM
- GI50 ([1]; T47D, T47D cell line, censored GI50 values): 457 nM
- GI50 ([1]; T47D, cell line T47D): 457 nM
- GI50 ([1]; UACC-893, UACC893 cell line, censored GI50 values): 186 nM
- GI50 ([1]; UACC-893, cell line UACC893): 186 nM
- GI50 ([1]; ZR-75-1, ZR751 cell line, censored GI50 values): 355 nM
- GI50 ([1]; ZR-75-1, cell line ZR751): 355 nM
- GI50 ([1]; ZR-75B, ZR75B cell line, censored GI50 values): 407 nM
- GI50 ([1]; ZR-75B, cell line ZR75B): 407 nM
- GI50 ([1]; cell line 600MPE): 288 nM
- GI50 ([1]; cell line HCC2185): 126 nM
- GI50 ([1]; cell line HCC3153): 347 nM
- GI50 ([1]; cell line LY2): 7.94 nM
- GI50 ([1]; cell line MDAMB134V): 224 nM
- GI50 ([1]; cell line MDAMB175V): 191 nM
- GI50 ([1]; cell line SUM1315MO): 417 nM
- Subtype specificity [2]: Luminal
- association of response with homozygous deletion at 9p21 (CDKN2A) [3]: associated with response
- inhibition of CDK4 (CDK4): inhibited CDK4
